According to patent publication US20240058328A1, “MASITINIB FOR THE TREATMENT OF ALZHEIMER'S DISEASE” (AB SCIENCE, priority 2020, published 2024):

System: patients with Alzheimer's disease
Test: Phase 3 study AB09004: change from baseline in ADAS-Cog score
Format: in vivo, human
Design: key to δLSM (ADAS-Cog) / 8LSM (ADAS-Cog): LSM diff. of ADAS-Cog change from baseline; negative = improvement
Conditions: for ALSM (ADAS-Cog) / 8LSM (ADAS-Cog) / ΔLSM (ADAS-Cog) / δLSM (ADAS-Cog): 4.5 mg/kg/day; for ALSM (ADAS-Cog) / ΔLSM (ADAS-Cog): vs placebo, week 24; for 8LSM (ADAS-Cog) / δLSM (ADAS-Cog): week 24 from baseline
Procedure: An international, multicenter, randomized, double-blind, placebo-controlled phase 3 study was conducted with the objective to evaluate oral masitinib at a dose of 4.5 mg/kg/day as a treatment for Alzheimer's disease.
Eligible patients, aged at least 50 years, were diagnosed with dementia of Alzheimer's type according to Diagnostic and Statistical Manual of Mental Disorders (DSM)-IV criteria, and probable Alzheimer's disease according to NINCDS-ADRDA (National Institute of Neurological and Communicative Diseases and Stroke/Alzheimer's Disease and Related Disorders Association) criteria. […] Patients with any other cause of dementia not due to Alzheimer's disease were ineligible for the study.
Eligible patients were treated during 24 weeks with masitinib at a dose of 4.5 mg/kg/day (mg per kilo body weight per day) or with placebo. Treatment was administered as add-on therapy in patients who had been treated for a minimum of 6 months with a stable dose of cholinesterase inhibitors (donepezil, rivastigmine or galantamine) and/or memantine, with no changes foreseen in therapy throughout the study.
Primary analysis was based on the co-primary endpoints of: • Change from baseline in Alzheimer's Disease Cooperative Study Activities of Daily Living (ADCS-ADL) score. The ADCS-ADL assesses the competence of patients with Alzheimer's disease in basic and instrumental activities of daily living (ADLs). • Change from baseline in Alzheimer's Disease Assessment Scale-Cognitive Subscale (ADAS-Cog). The ADAS-Cog assesses cognition and memory.
Treatment effect (masitinib versus placebo) was assessed based on absolute change from baseline to week 24 by using an analysis of covariance model (ANCOVA linear model) with the following factors: treatment, baseline value, and stratification criteria of baseline MMSE score, age, ADCS-ADL total score, and ADAS-Cog total score.
The ADAS-Cog version used in study AB09004 included 11 items regrouped as follows: language (items 1, 2, 3), praxia and gnosia (items 5, 7, 8, 9), memory (items 4, 10, 11), orientation (item 6). The items range either from 0 to 5 (items 1, 2, 3, 5, 7, 8, 9, 11), or from 0 to 8 (item 6), or from 0 to 10 (item 4), or from 0 to 12 (item 10). The global score, which is the sum of the 11 items, ranges from 0 to 70, with higher scores indicating greater cognitive impairment. Results are expressed as a least-squares means difference (δLSM) of absolute change in ADAS-Cog score from baseline; that is to say, the change over time in the ADAS-Cog score, or in other words the difference between the ADAS-Cog score at baseline and the ADAS-Cog score after treatment with masitinib or with placebo. A decrease in ADAS-Cog score with respect to baseline (i.e., a negative δLSM) indicates an improvement in the patient and therefore disease stability, whereas an increase in ADAS-Cog score with respect to baseline (i.e., a positive δLSM) indicates a worsening in the patient and therefore disease progression. Treatment-effect is reported as the difference between treatment-arms (ΔLSM) (calculated as δLSM[masitinib] minus δLSM[placebo]), with a negative value indicating a beneficial effect of treatment with masitinib as compared with placebo. In a scenario where both treatment-arms show worsening in cognitive function (i.e., a positive δLSM), then a negative ΔLSM indicates a beneficial treatment effect for masitinib, i.e., the rate of decline in masitinib treated patients is slower than that of patients from the placebo-arm. […]

`Cc1ccc(NC(=O)c2ccc(CN3CCN(C)CC3)cc2)cc1Nc1nc(-c2cccnc2)cs1` [masitinib, 4-(4-methylpiperazin-1-ylmethyl)-N-[4-methyl-3-(4-pyridin-3ylthiazol-2-ylamino)phenyl]benzamide] was tested, and the “ALSM (ADAS-Cog)” value (Baseline ADAS-Cog >32) was −1.6044 points, the “8LSM (ADAS-Cog)” value (Baseline ADAS-Cog >32) was −7.2739 and the “ALSM (ADAS-Cog)” value (Baseline ADAS-Cog >40) was −0.2351 points. The “8LSM (ADAS-Cog)” value (Baseline ADAS-Cog >40) was −4.9348, the “ALSM (ADAS-Cog)” value (Baseline ADAS-Cog ≤32) was −2.1011 points and the “8LSM (ADAS-Cog)” value (Baseline ADAS-Cog ≤32) was −1.5266. The “ALSM (ADAS-Cog)” value (Baseline ADAS-Cog ≤40) was −2.3299 points, the “8LSM (ADAS-Cog)” value (Baseline ADAS-Cog ≤40) was −1.4472 and the “ΔLSM (ADAS-Cog)” value (Diagnosis >2 years) was −1.3581 points. For the same molecule, the “δLSM (ADAS-Cog)” value (Diagnosis >2 years) was −1.2197, the “ΔLSM (ADAS-Cog)” value (Diagnosis >3 years) was −0.3770 points and the “δLSM (ADAS-Cog)” value (Diagnosis >3 years) was −0.7048. For the same molecule, the “ΔLSM (ADAS-Cog)” value (Diagnosis >4 years) was −1.3426 points, the “δLSM (ADAS-Cog)” value (Diagnosis >4 years) was −1.2607 and the “ΔLSM (ADAS-Cog)” value (Diagnosis >5 years) was −1.4470 points. The “δLSM (ADAS-Cog)” value (Diagnosis >5 years) was −1.4756, the “ΔLSM (ADAS-Cog)” value (Diagnosis ≤2 years) was −2.7754 points and the “δLSM (ADAS-Cog)” value (Diagnosis ≤2 years) was −1.6958. For the same molecule, the “ΔLSM (ADAS-Cog)” value (Diagnosis ≤3 years) was −2.8700 points, the “δLSM (ADAS-Cog)” value (Diagnosis ≤3 years) was −1.7671 and the “ΔLSM (ADAS-Cog)” value (Diagnosis ≤4 years) was −2.3435 points. The “δLSM (ADAS-Cog)” value (Diagnosis ≤4 years) was −1.4948, the “ΔLSM (ADAS-Cog)” value (Diagnosis ≤5 years) was −2.2599 points and the “δLSM (ADAS-Cog)” value (Diagnosis ≤5 years) was −1.4394. For the same molecule, the “ΔLSM (ADAS-Cog)” value (MMSE <13) was −0.4996 points, the “δLSM (ADAS-Cog)” value (MMSE <13) was 2.1702 and the “ΔLSM (ADAS-Cog)” value (MMSE <14) was 1.0497 points. The “δLSM (ADAS-Cog)” value (MMSE <14) was 3.6165, the “ΔLSM (ADAS-Cog)” value (MMSE <15) was −1.0976 points and the “δLSM (ADAS-Cog)” value (MMSE <15) was 1.5482. The “ΔLSM (ADAS-Cog)” value (MMSE <16) was −1.0624 points, the “δLSM (ADAS-Cog)” value (MMSE <16) was 0.8538 and the “ΔLSM (ADAS-Cog)” value (MMSE <17) was −1.0127 points. The “δLSM (ADAS-Cog)” value (MMSE <17) was 0.9251, the “ΔLSM (ADAS-Cog)” value (MMSE [12-20]) was −1.7387 points and the “δLSM (ADAS-Cog)” value (MMSE [12-20]) was −1.0350. The “ΔLSM (ADAS-Cog)” value (MMSE [25-21]) was −2.8929 points, the “δLSM (ADAS-Cog)” value (MMSE [25-21]) was −2.4719 and the “ΔLSM (ADAS-Cog)” value (MMSE ≥13) was −2.1488 points. For the same molecule, the “δLSM (ADAS-Cog)” value (MMSE ≥13) was −1.4717, the “ΔLSM (ADAS-Cog)” value (MMSE ≥14) was −2.4192 points and the “δLSM (ADAS-Cog)” value (MMSE ≥14) was −1.8028. The “ΔLSM (ADAS-Cog)” value (MMSE ≥15) was −2.2577 points, the “δLSM (ADAS-Cog)” value (MMSE ≥15) was −1.8834 and the “ΔLSM (ADAS-Cog)” value (MMSE ≥16) was −2.2907 points. For the same molecule, the “δLSM (ADAS-Cog)” value (MMSE ≥16) was −2.0435, the “ΔLSM (ADAS-Cog)” value (MMSE ≥17) was −2.4915 points and the “δLSM (ADAS-Cog)” value (MMSE ≥17) was −2.3004. For the same molecule, the “ΔLSM (ADAS-Cog)” value (Overall Population) was −2.1485 points, the “δLSM (ADAS-Cog)” value (Overall Population) was −1.4550 and the Δsub/Δoverall (ratio of ΔLSM (ADAS-Cog) at W24, Diagnosis ≤2 years vs overall study population) was 1.29. For the same molecule, the Δsub/Δoverall (ratio of ΔLSM (ADAS-Cog) at W24, Diagnosis ≤3 years vs overall study population) was 1.34, the Δsub/Δoverall (ratio of ΔLSM (ADAS-Cog) at W24, Diagnosis ≤4 years vs overall study population) was 1.09 and the Δsub/Δoverall (ratio of ΔLSM (ADAS-Cog) at W24, Diagnosis ≤5 years vs overall study population) was 1.05. The Δsub/Δoverall (ratio of ΔLSM (ADAS-Cog) at W24, MMSE [20-12] vs overall study population) was 0.81, the Δsub/Δoverall (ratio of ΔLSM (ADAS-Cog) at W24, MMSE [25-21] vs overall study population) was 1.35 and the “Δsub/Δoverall (percentage improvement)” value (ΔLSM (ADAS-Cog) at W24, Diagnosis ≤2 years vs overall study population) was 29%. The “Δsub/Δoverall (percentage improvement)” value (ΔLSM (ADAS-Cog) at W24, Diagnosis ≤2 years vs overall study population, listed as M4.5) was “(29%)”, the “Δsub/Δoverall (percentage improvement)” value (ΔLSM (ADAS-Cog) at W24, Diagnosis ≤3 years vs overall study population) was 34% and the “Δsub/Δoverall (percentage improvement)” value (ΔLSM (ADAS-Cog) at W24, Diagnosis ≤3 years vs overall study population, listed as M4.5) was “(34%)”. The “Δsub/Δoverall (percentage improvement)” value (ΔLSM (ADAS-Cog) at W24, Diagnosis ≤4 years vs overall study population) was “(9%)”, the “Δsub/Δoverall (percentage improvement)” value (ΔLSM (ADAS-Cog) at W24, Diagnosis ≤5 years vs overall study population) was “(5%)” and the “Δsub/Δoverall (percentage improvement)” value (ΔLSM (ADAS-Cog) at W24, MMSE [20-12] vs overall study population) was “(−19%)”. For the same molecule, the “Δsub/Δoverall (percentage improvement)” value (ΔLSM (ADAS-Cog) at W24, MMSE [25-21] vs overall study population) was 35%, the “Δsub/Δoverall (percentage improvement)” value (ΔLSM (ADAS-Cog) at W24, MMSE [25-21] vs overall study population, listed as M4.5) was “(35%)” and the “improved benefit relative to complementary subpopulation” value (ΔLSM (ADAS-Cog), baseline MMSE 25 to 21 relative to MMSE 20 to 12, printed as 'between 99% to 66%') was 66%.
